Reference: PMC11790763, “A Peptide Motif Covering Splice Site B in Neuroligin-1 Binds to Aβ and Acts as a Neprilysin Inhibitor” (Molecular Neurobiology, 2024)
Bridges are numbered along the chain shown (N, C = ends). Roman numbers before positions name the chains, in order. Where no end group is shown, it is not given here.

Columns and labels:
[1] = biological target: T1, recombinant neprilysin (NEP) (Homo sapiens, UniProt P08473); experiment: Neprilysin activity assay with recombinant enzyme (SensoLyte 520); format: biochemical; details: four to five independent experiments; for activity of recombinant NEP: dose-dependent, NL1 0.1, 0.3, 1, 3 μM, neurolide 1, 5, 10, 100 μM, 5-FAM/QXL substrate, Ex/Em 485/535 nm, 2 h
T1 construct: purchased Anaspec, Fremont, California, USA (SensoLyte 520 Neprilysin Activity Assay Kit)
T1 sequence (P08473 whole entry): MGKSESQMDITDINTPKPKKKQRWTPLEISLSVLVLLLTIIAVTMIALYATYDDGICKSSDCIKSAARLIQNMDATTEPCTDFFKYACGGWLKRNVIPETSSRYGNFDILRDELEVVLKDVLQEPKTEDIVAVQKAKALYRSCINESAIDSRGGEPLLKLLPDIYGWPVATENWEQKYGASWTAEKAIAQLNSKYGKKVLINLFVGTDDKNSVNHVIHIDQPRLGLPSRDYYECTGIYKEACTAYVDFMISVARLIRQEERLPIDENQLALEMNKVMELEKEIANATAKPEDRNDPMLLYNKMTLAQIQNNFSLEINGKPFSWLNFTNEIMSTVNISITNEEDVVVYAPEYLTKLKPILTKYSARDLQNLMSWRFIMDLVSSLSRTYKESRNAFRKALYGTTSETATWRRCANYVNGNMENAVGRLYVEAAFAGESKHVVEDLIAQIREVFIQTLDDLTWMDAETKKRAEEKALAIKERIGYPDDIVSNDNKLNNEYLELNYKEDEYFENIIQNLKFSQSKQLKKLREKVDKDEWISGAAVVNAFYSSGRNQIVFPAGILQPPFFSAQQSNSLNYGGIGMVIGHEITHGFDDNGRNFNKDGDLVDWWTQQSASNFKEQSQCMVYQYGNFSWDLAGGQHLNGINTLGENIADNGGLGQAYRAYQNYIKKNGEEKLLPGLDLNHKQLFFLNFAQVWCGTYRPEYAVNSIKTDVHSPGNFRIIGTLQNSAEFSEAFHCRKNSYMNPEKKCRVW
Method: NEP activity was measured using the SensoLyte 520 Neprilysin Activity Assay Kit *Fluorimetric* (Anaspec, Fremont, California, USA) following the protocol provided by the manufacturer. Briefly, Aβ1-42 was dissolved in anhydrous DMSO to a stock concentration of 5 mM, followed by dilutions in assay buffer (100 μM, 50 μM, and 5 μM). Both NL1 (3 μM, 1 μM, 0.3 μM, 0.1 μM) and neurolide (100, 10, 5, and 1 μM) were dissolved in assay buffer. Randomly selected two additional NL1-derived peptides, NLp4, and NLp7 (5 μM, Table 1), were included in the analysis. The NEP solution (40 μl) was mixed with 10 μl of either NL1 or peptides and supplemented with 50 μl of NEP substrate (5-FAM/QXL), and the final mixture was incubated in black optical-bottom 96-well plate (Nunc, Rochester, New York, USA). In co-stimulation experiments, Aβ1-42, prepared as described above, was added to the solution in final concentrations either 0.5 μM or 5 μM. The fluorescence signal was recorded at Ex/Em = 485/535 nm every 20 min for 2 h. The data are presented as the relative activity of NEP alone.

[2] = cited from earlier work
Aβ1-40 = biological target: T2, Aβ1-40 (Homo sapiens, UniProt P05067); experiment: Competitive ELISA, binding to biotinylated Aβ1-40
T2 construct: biotinylated Aβ1-40, at final concentration 400 nM; purchased Bachem AG (Bubendorf, Switzerland) or Schafer-N; host or cells: synthetic peptide
T2 sequence (P05067 672-711): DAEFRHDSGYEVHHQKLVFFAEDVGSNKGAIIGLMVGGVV
Method: NL1 and NL1-derived peptide binding to Aβ was measured by competitive ELISA using the shorter Aβ1-40 peptide with a slower polymerization constant, optimized for this binding assay. Recombinant NL1 (3.125 nM) was immobilized on a poly-sorb 96-well plate (NUNC, Roskilde, Denmark) using sodium bicarbonate buffer (pH 9.6), and left overnight at 4 °C, followed by washing with PBST buffer (PBS supplemented with 0.1% [vol/vol] Tween-20, pH 7.4). In separate tubes, biotinylated Aβ1-40, at final concentration 400 nM, was premixed with serially diluted NL1 or NL1-derived peptides for 30 min. A reversed version of Aβ (Aβ40-1) was used as the respective negative control (Supplementary Fig. 1). After preincubation, the samples were centrifuged at 20,000 × g for 10 min at 4 °C and 100 μl of the mixtures were transferred in triplicates onto the precoated ELISA plate. Plates were incubated at room temperature for 4 h, followed by washing and incubation with streptavidin-HRP conjugate (1:1000, 1 h; Dako, Glostrup, Denmark). The signal was developed with TMB ONE (KEM-EN-TEC, Denmark), and the reaction was terminated with 0.2 M H2SO4. Absorbance was measured at 450 nm on a Wallac VICTOR2 1420 Multilabel Counter (PerkinElmer, Hvidovre, Denmark). KD values were derived by sigmoidal dose–response (variable slope) fit of NL1 and neurolide dose–response curves after log transformation according to GraphPad Prism (version 6, GraphPad, San Diego, CA, USA). Obtained inhibitory concentration IC50 value was interpreted as KD value.

Aβ1-42 = details: NL1 at 1 nM; cited from earlier work
Text: This higher accumulation of Aβ plaques promoted by the neurolide treatment prompted us to look for an explanation for this phenome ...

Molecule | activity of recombinant NEP [1] | activity of recombinant NEP in the presence of Aβ1-42 ([1]; neurolide 10 μM with Aβ1-42 at 0.5 μM or 5 μM) | passage of the blood–brain-barrier [2] | plasma/CSF ratio ([2]; systemically given) | levels in CSF ([2]; within 30 min after single s.c. administration) | binding affinity to Aβ, times lower than that of the parent sNL1 domain (Aβ1-40) | effect on Aβ aggregation at low concentration (Aβ1-42)
I: SEGNRWSNSTKGLFQRAKK-NH2 / II: SEGNRWSNSTKGLFQRAK / III: SEGNRWSNSTKGLFQRA / IV: SEGNRWSNSTKGLFQRA (amide I:18-IV:C, I:19-II:C, II:18-III:C; C-terminus assumed) [neurolide] | significantly inhibited | significantly inhibited | in the range of nanograms | approximately 20 | nanogram/low microgram levels | approximately 2 times | 
NL1: recombinant rat neuroligin-1, soluble ectodomain (R&D systems) (protein, UniProt Q62765 46-697, looked up, extracellular domain) extracellular domain: QKLDDVDPLVTTNFGKIRGIKKELNNEILGPVIQFLGVPYAAPPTGEHRFQPPEPPSPWSDIRNATQFAPVCPQNIIDGRLPEVMLPVWFTNNLDVVSSYVQDQSEDCLYLNIYVPTEDVKRISKECARKPGKKICRKGDIRDSGGPKPVMVYIHGGSYMEGTGNLYDGSVLASYGNVIVITVNYRLGVLGFLSTGDQAAKGNYGLLDLIQALRWTSENIGFFGGDPLRITVFGSGAGGSCVNLLTLSHYSEGNRWSNSTKGLFQRAIAQSGTALSSWAVSFQPAKYARILATKVGCNVSDTVELVECLQKKPYKELVDQDVQPARYHIAFGPVIDGDVIPDDPQILMEQGEFLNYDIMLGVNQGEGLKFVENIVDSDDGVSASDFDFAVSNFVDNLYGYPEGKDVLRETIKFMYTDWADRHNPETRRKTLLALFTDHQWVAPAVATADLHSNFGSPTYFYAFYHHCQTDQVPAWADAAHGDEVPYVLGIPMIGPTELFPCNFSKNDVMLSAVVMTYWTNFAKTGDPNQPVPQDTKFIHTKPNRFEEVAWTRYSQKDQLYLHIGLKPRVKEHYRANKVNLWLELVPHLHNLNDISQYTSTTTKVPSTDITLRPTRKNSTPVTSAFPTAKQDDPKQQPSPFSVDQRDYSTELS | significantly inhibited |  |  |  |  |  | accelerated the aggregation
